# Measurements taken from PubChem BioAssay AID1919006 (Molecular Pharmacology Branch, DTP, NCI, 2023).
# pIC50: −log10 of the molar value. Values joined by “and” are separate entries in the source; they are usually repeats but may differ in a detail not shown here. Identical values can stand only once.
# Tested on: 885512-296-R-J2-PDC complex spheroid growth, % test/control
# Assay: Anticancer human tumor 885512-296-R-J2-PDC patient-derived breast carcinoma cell line growth inhibition [AhR]
# Settings: for viability, T/C: stronger effect = lower value
# Source text: Multicellular complex tumor spheroid response to aryl hydrocarbon receptor antagonists in combination with a variety of drugs and investigational agents in selected tumor cell lines
# The current study was undertaken to assess response to aryl hydrocarbon receptor antagonists in combination with standard-of-care drugs and investigational agents in solid tumor complex spheroid models. Complex spheroids include a stromal component modeled by human endothelial cells (HUVEC) and fibroblasts modeled by human mesenchymal stem cells (MSCs). The concentration ranges selected for each drug and investigational agent were based upon clinically achievable concentrations if the clinical Cmax of the agent was known.
# Compounds. The drugs and investigational agents: BAY 2416964 (NSC825713), GNF351 (NSC835774), CH-223191 (NSC835775), CPI-455 (NSC825282), aza-TdCyd (NSC777586), decitabine (NSC127716), belinostat (NSC758774), entinostat (NSC756642), pevonedistat (NSC761192), tazemetostat (NSC777109), talazoparib (NSC765396), olaparib (NSC753686), selinexor (NSC780203), nedisertib (M3814, NSC802822), bortezomib (NSC756655), venetoclax (NSC766270), doxorubicin (NSC123127), elimusertib (BAY189344, NSC800525), ceralasertib (AZD6738, NSC777638), TAK-243 (NSC785004), alisertib (NSC759677), etoposide (NSC141540), topotecan (NSC609699), eribulin (NSC707389), gemcitabine (NSC613327), carboplatin (NSC241240), cisplatin (NSC119875), and SN-38 (NSC673596) were obtained from the National Cancer Institute (NCI) Developmental Therapeutics Program Chemical Repository (32). The FDA-approved anticancer drug set is available from the Developmental Therapeutics Program at https://dtp.cancer.gov/organization/dscb/obtaining/available plates.htm. […] The stock solutions were prepared in dimethyl sulfoxide (DMSO, Sigma-Aldrich, St. Louis, MO, cat. D2650), except for the platinum compounds which were prepared in saline (Quality Biological, Gaithersburg, MD, cat. 114-055-101), at 800-fold the tested concentration and stored at -70 degrees C prior to their use. All drugs and investigational agents were tested over a range starting from a high concentration at or near the clinical Cmax and decreasing in half-log increments. If the clinical Cmax for an agent had not been determined, the highest concentration tested was 10 microM (Table 1).
# Cell Culture. All cells were maintained in an incubator at 37 degrees C and 5% CO2 with 95% humidity. The PDC lines were cultured according to standard operating procedures established by the NCI PDMR (https://pdmr.cancer.gov). Briefly, all PDCs were thawed and cultured in Matrigel-coated flasks prepared with a working solution of 1X Ham's F-12 nutrient mix, without supplementation (Invitrogen, Waltham, MA, cat. 11765054), 100 U/mL penicillin-streptomycin (Invitrogen, cat. 15140122), and 2.5% Matrigel (Corning Inc., Corning, NY, cat. 354248) for the first three passages. All PDCs were cultured in complete DMEM/F-12 media containing advanced DMEM/F-12 (Invitrogen, cat. 12634028), 4.9% defined fetal bovine serum, heat inactivated (HyClone Laboratories Inc., Logan, UT, cat. SH30070.03HI), 389 ng/mL hydrocortisone (Sigma-Aldrich, cat. H4001), 9.7 ng/mL human EGF recombinant protein (Invitrogen, cat. PHG0313), 23.4 microg/mL adenine (Sigma-Aldrich, cat. A2786), 97.3 U/mL penicillin-streptomycin (Invitrogen, cat. 15140122), 1.9 mM L-glutamine (Invitrogen, cat. 25030081), and 9.7 microM Y-27632 dihydrochloride (Tocris Bioscience, Bristol, United Kingdom, cat. 1254). The PDCs were cultured in complete DMEM/F12 media without 10 microM Y-27632 dihydrochloride for at least two passages prior to the screen. The established cell lines NCI-H1341 and […] were cultured in DMEM/F-12, HEPES (Invitrogen, cat. 11330032), 5% defined fetal bovine serum (HyClone Laboratories Inc., cat. SH30070.03), ITS premix universal culture supplement [insulin (5 microg/mL), transferrin (5 microg/mL), and selenious acid (5 ng/mL)] […]
# [1] = curve of first compound, second compound 0.1 µM
# [2] = curve of first compound, second compound 0.316 µM
# [3] = curve of first compound, second compound 1 µM
# [4] = curve of first compound, second compound 3.16 µM
# [5] = curve of first compound, second compound 10 µM
# [6] = second compound 0.1 µM, first compound 0.0316 µM
# [7] = second compound 0.1 µM, first compound 0.1 µM
# [8] = second compound 0.1 µM, first compound 0.316 µM
# [9] = second compound 0.1 µM, first compound 1 µM
# [10] = second compound 0.1 µM, first compound 3.16 µM
# [11] = second compound 0.1 µM, first compound 10 µM
# [12] = second compound 0.316 µM, first compound 0.0316 µM
# [13] = second compound 0.316 µM, first compound 0.1 µM
# [14] = second compound 0.316 µM, first compound 0.316 µM
# [15] = second compound 0.316 µM, first compound 1 µM
# [16] = second compound 0.316 µM, first compound 3.16 µM
# [17] = second compound 0.316 µM, first compound 10 µM
# [18] = second compound 1 µM, first compound 0.0316 µM
# [19] = second compound 1 µM, first compound 0.1 µM
# [20] = second compound 1 µM, first compound 0.316 µM
# [21] = second compound 1 µM, first compound 1 µM
# [22] = second compound 1 µM, first compound 3.16 µM
# [23] = second compound 1 µM, first compound 10 µM
# [24] = second compound 3.16 µM, first compound 0.0316 µM
# [25] = second compound 3.16 µM, first compound 0.1 µM
# [26] = second compound 3.16 µM, first compound 0.316 µM
# [27] = second compound 3.16 µM, first compound 1 µM
# [28] = second compound 3.16 µM, first compound 3.16 µM
# [29] = second compound 3.16 µM, first compound 10 µM
# [30] = second compound 10 µM, first compound 0.0316 µM
# [31] = second compound 10 µM, first compound 0.1 µM
# [32] = second compound 10 µM, first compound 0.316 µM
# [33] = second compound 10 µM, first compound 1 µM
# [34] = second compound 10 µM, first compound 3.16 µM
# [35] = second compound 10 µM, first compound 10 µM
# 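Note: spheroids exposed to compounds for seven days.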
pIC50 [1],pIC50 [2],pIC50 [3],pIC50 [4],pIC50 [5],Compound,"viability, T/C [6] [%]","viability, T/C [7] [%]","viability, T/C [8] [%]","viability, T/C [9] [%]","viability, T/C [12] [%]","viability, T/C [13] [%]","viability, T/C [14] [%]","viability, T/C [15] [%]","viability, T/C [18] [%]","viability, T/C [19] [%]","viability, T/C [20] [%]","viability, T/C [21] [%]","viability, T/C [24] [%]","viability, T/C [25] [%]","viability, T/C [26] [%]",also measured
5.98,5.95,5.97,6.43,> 7.50,Nc1ccccc1NC(=O)c1ccc(CNC(=O)OCc2cccnc2)cc1 + Cc1cncc(-c2nc(NCCc3c[nH]c4ccccc34)c3ncn(C(C)C)c3n2)c1,85.6,102,80.5,47.3,86.9,94.4,72,49.4,82.3,78.7,77.7,48,56.6,61.3,49.5,"viability, T/C [10]: 31.2%; viability, T/C [11]: 12.6%; viability, T/C [16]: 32.7%; viability, T/C [17]: 12.2%; viability, T/C [22]: 29.6%; viability, T/C [23]: 15.2%; viability, T/C [27]: 40.4%; viability, T/C [28]: 25.1%; viability, T/C [29]: 15.2%; viability, T/C [30]: 21.3%; viability, T/C [31]: 19.4%; viability, T/C [32]: 15.9%; viability, T/C [33]: 11.6%; viability, T/C [34]: 9.94%; viability, T/C [35]: 9.37%"
5.83,5.82,5.82,5.88,6.04,O=C(C=Cc1cccc(S(=O)(=O)Nc2ccccc2)c1)NO + CC(CO)NC(=O)c1cc(-c2ccc(Cl)cc2)nn(-c2cnn(C)c2)c1=O,89.9,91.5,79.6,50.1,89.8,84.8,79.4,51,96,101,80.8,50.6,81.3,86.5,74.1,"viability, T/C [10]: 40.4%; viability, T/C [11]: 10.1%; viability, T/C [16]: 39.9%; viability, T/C [17]: 9.03%; viability, T/C [22]: 40.9%; viability, T/C [23]: 9.28%; viability, T/C [27]: 48%; viability, T/C [28]: 38.1%; viability, T/C [29]: 8.4%; viability, T/C [30]: 86.5%; viability, T/C [31]: 79.1%; viability, T/C [32]: 68.1%; viability, T/C [33]: 43.5%; viability, T/C [34]: 31.9%; viability, T/C [35]: 6.06%"
7.37,7.47,7.45,7.54,7.71,CC1COCCN1c1cc(-c2ccnn2C)c2ccnc(-c3ccn[nH]3)c2n1 (configuration not stated) + CC(CO)NC(=O)c1cc(-c2ccc(Cl)cc2)nn(-c2cnn(C)c2)c1=O,67.8,10.4,3.86,2.47,54.2,10.6,3.26,2.5,53.4,10.7,2.7,2.39,47,6.94,2.32,"viability, T/C (second compound 0.1 µM, first compound 0.00316 µM): 112%; viability, T/C (second compound 0.1 µM, first compound 0.01 µM): 87.6%; viability, T/C (second compound 0.316 µM, first compound 0.00316 µM): 96.6%; viability, T/C (second compound 0.316 µM, first compound 0.01 µM): 84.4%; viability, T/C (second compound 1 µM, first compound 0.00316 µM): 93.4%; viability, T/C (second compound 1 µM, first compound 0.01 µM): 91.7%; viability, T/C (second compound 3.16 µM, first compound 0.00316 µM): 91.2%; viability, T/C (second compound 3.16 µM, first compound 0.01 µM): 87.7%; viability, T/C [27]: 2.05%; viability, T/C (second compound 10 µM, first compound 0.00316 µM): 90.5%; viability, T/C (second compound 10 µM, first compound 0.01 µM): 84.2%; viability, T/C [30]: 25.7%; viability, T/C [31]: 4.34%; viability, T/C [32]: 2.45%; viability, T/C [33]: 2.06%"
,,,,,CC(C)CC(NC(=O)C(Cc1ccccc1)NC(=O)c1cnccn1)B(O)O (configuration not stated),,,,,,,,,,,,,,,,"viability, T/C (compound 0.000949 µM): 106% and 93.4% and 96.8%; viability, T/C (compound 0.003 µM): 94.4% and 94.7% and 83.5%; viability, T/C (compound 0.00949 µM): 19.2% and 26.2% and 9.11%; viability, T/C (compound 0.03 µM): 1.45% and 1.42% and 0.86%; viability, T/C (compound 0.0949 µM): 0.43% and 0.3% and 0.26%; viability, T/C (compound 0.3 µM): 0.27% and 0.21% and 0.15%; pIC50 (curve of compound): 8.23 and 8.20 and 8.30"
6.26,6.22,6.40,6.77,> 7.50,COc1cc(C2c3cc4c(cc3C(OC3OC5COC(C)OC5C(O)C3O)C3COC(=O)C23)OCO4)cc(OC)c1O (configuration not stated) + Cc1cncc(-c2nc(NCCc3c[nH]c4ccccc34)c3ncn(C(C)C)c3n2)c1,104,92.2,75,23.7,104,101,72.8,32.1,90.2,78,59.3,17.5,64.9,55.4,42,"viability, T/C [10]: 10.6%; viability, T/C [11]: 8.99%; viability, T/C [16]: 10.5%; viability, T/C [17]: 8.12%; viability, T/C [22]: 11.2%; viability, T/C [23]: 8.42%; viability, T/C [27]: 15.6%; viability, T/C [28]: 10.7%; viability, T/C [29]: 9.12%; viability, T/C [30]: 18.5%; viability, T/C [31]: 17.6%; viability, T/C [32]: 14.2%; viability, T/C [33]: 14.1%; viability, T/C [34]: 10.2%; viability, T/C [35]: 6.83%"
